The source made the active and inactive calls. No cut-off for these calls is given here.

The target in experiment [1] is Serine/threonine-protein kinase 16 (Homo sapiens) (UniProt O75716). In words: Inhibition of MPSK1 Lys2 labeling site in human Huh-7 cells at 1 uM by KiNativ Profiling analysis relative to control. In kind it is cell-based.
Experiment [2] addresses Cyclin-dependent kinase 2 (Homo sapiens) (UniProt P24941). Briefly: Inhibition of CDK2 Lys1 labeling site in human Huh-7 cell lysate at 1 uM by KiNativ Profiling analysis relative to control. Type of experiment: subcellular.
Experiment [3] addresses T1, Mitogen-activated protein kinase kinase kinase kinase 2 (Homo sapiens) (UniProt Q12851).
T1 sequence (whole entry): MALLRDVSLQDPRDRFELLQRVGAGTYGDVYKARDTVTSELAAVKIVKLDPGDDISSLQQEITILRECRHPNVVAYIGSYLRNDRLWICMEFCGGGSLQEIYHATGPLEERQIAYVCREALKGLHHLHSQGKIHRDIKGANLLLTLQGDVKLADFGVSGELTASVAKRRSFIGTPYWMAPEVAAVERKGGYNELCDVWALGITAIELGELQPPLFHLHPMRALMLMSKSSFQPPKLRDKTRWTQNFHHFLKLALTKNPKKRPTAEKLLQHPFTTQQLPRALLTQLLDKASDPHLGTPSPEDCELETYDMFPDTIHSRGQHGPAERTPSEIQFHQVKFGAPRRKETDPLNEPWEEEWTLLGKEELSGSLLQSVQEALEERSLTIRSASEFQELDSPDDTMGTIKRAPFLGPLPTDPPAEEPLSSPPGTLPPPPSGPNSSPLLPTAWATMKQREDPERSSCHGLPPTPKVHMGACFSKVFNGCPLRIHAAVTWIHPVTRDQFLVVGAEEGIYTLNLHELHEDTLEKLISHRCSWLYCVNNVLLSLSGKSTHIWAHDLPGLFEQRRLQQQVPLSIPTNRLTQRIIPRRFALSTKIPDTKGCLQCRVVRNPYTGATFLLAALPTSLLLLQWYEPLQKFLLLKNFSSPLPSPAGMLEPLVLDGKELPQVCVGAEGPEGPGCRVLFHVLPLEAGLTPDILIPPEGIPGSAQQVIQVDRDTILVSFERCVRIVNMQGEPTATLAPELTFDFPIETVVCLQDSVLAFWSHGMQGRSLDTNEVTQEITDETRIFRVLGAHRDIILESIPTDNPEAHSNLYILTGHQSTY
Briefly: Inhibition of MAP4K2 (GCK) Lys1 labeling site in human Huh-7 cells at 1 uM by KiNativ Profiling analysis relative to control. Type of experiment: cell-based.

The target in experiment [4] is Calcium/calmodulin-dependent protein kinase type II subunit gamma (Homo sapiens) (UniProt Q13555). Briefly: Inhibition of CaMK2g Lys1 labeling site harbouring TSTQEYAAKIINTK in human A-375 cells at 0.05 uM by KiNativ Profiling analysis relative to control. In kind it is cell-based.
Sequence of Calcium/calmodulin-dependent protein kinase type II subunit gamma (Homo sapiens) (Q13555 whole entry): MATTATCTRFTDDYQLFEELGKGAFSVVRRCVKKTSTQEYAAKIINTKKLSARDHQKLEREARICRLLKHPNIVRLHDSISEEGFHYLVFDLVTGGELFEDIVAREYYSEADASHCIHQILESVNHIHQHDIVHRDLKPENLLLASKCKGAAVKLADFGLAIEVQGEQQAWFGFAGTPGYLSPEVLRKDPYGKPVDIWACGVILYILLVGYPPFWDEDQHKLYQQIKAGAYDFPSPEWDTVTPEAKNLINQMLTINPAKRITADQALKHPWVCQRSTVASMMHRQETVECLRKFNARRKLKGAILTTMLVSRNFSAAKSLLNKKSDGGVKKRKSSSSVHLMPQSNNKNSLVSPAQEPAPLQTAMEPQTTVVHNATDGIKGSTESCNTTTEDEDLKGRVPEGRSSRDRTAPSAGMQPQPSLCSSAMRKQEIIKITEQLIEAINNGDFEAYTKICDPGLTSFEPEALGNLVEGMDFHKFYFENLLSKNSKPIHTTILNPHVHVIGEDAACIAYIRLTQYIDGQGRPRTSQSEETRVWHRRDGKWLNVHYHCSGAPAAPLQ
Experiment [5] addresses Serine/threonine-protein kinase DCLK3 (Homo sapiens) (UniProt Q9C098). In words: Inhibition of DCAMKL3 (unknown origin) at 1 uM by Ambit Kinomescan binding assay relative to control; values are per cent of control.
For experiment [6], the target named is Tyrosine-protein kinase ABL (Homo sapiens) (UniProt P00519+P42684). In words: Inhibition of ABL1/2 K1 labeling site in human Huh-7 cells at 1 uM by KiNativ Profiling analysis relative to control. Type of experiment: cell-based.
Experiment [7] has as its target Dual specificity protein kinase CLK1 (Homo sapiens) (UniProt P49759). In words: Inhibition of CLK1 (unknown origin) at 10 uM by Ambit Kinomescan binding assay.
Experiment [8] in a line: Inhibition of MAP3K2/3 K2 labeling site in human Huh-7 cells at 1 uM by KiNativ Profiling analysis relative to control. The note with it: condition cancer.
The target of experiment [9] is T2, Eukaryotic translation initiation factor 2-alpha kinase 3 (Homo sapiens) (UniProt Q9NZJ5).
T2 sequence (whole entry): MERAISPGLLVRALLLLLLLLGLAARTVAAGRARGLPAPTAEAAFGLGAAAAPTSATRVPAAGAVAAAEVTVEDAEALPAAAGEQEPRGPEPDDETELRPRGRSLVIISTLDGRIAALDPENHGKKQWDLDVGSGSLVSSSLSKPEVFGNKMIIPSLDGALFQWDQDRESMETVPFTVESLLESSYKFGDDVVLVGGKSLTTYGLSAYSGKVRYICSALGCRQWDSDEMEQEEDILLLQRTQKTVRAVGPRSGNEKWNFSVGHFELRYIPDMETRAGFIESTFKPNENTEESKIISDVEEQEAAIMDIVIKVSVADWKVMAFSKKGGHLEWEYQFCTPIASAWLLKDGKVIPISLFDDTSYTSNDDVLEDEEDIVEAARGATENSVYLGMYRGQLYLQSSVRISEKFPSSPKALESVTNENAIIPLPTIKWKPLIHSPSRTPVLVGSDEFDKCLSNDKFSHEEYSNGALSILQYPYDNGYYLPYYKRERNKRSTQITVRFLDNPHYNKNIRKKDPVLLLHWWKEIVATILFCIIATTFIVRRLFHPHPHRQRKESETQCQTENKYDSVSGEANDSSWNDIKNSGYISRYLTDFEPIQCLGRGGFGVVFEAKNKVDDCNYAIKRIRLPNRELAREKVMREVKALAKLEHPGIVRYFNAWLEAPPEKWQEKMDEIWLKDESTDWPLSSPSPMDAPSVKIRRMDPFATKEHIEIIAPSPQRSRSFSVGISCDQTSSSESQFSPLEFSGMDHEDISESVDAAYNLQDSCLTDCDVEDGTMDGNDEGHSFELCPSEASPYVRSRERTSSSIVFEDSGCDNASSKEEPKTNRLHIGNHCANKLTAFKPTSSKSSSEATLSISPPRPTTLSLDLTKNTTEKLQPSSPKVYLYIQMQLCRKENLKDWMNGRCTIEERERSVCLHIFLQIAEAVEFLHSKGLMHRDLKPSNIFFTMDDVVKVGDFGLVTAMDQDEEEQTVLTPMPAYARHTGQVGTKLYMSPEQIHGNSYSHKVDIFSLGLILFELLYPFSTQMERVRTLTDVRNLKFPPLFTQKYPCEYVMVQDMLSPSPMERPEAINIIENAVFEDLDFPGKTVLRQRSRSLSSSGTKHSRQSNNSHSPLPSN
In words: Inhibition of PEK K2 labeling site in human Huh-7 cells at 10 uM by KiNativ Profiling analysis relative to control. Type of experiment: cell-based.

In experiment [10] the target is Ribosomal protein S6 kinase alpha-3 (Homo sapiens) (UniProt P51812). Briefly: Inhibition of RSK2 Domain 2 K1 labeling site in human Huh-7 cells at 1 uM by KiNativ Profiling analysis relative to control. In kind it is cell-based.
Sequence of Ribosomal protein S6 kinase alpha-3 (Homo sapiens) (P51812 whole entry, the tested form may be a part, canonical isoform): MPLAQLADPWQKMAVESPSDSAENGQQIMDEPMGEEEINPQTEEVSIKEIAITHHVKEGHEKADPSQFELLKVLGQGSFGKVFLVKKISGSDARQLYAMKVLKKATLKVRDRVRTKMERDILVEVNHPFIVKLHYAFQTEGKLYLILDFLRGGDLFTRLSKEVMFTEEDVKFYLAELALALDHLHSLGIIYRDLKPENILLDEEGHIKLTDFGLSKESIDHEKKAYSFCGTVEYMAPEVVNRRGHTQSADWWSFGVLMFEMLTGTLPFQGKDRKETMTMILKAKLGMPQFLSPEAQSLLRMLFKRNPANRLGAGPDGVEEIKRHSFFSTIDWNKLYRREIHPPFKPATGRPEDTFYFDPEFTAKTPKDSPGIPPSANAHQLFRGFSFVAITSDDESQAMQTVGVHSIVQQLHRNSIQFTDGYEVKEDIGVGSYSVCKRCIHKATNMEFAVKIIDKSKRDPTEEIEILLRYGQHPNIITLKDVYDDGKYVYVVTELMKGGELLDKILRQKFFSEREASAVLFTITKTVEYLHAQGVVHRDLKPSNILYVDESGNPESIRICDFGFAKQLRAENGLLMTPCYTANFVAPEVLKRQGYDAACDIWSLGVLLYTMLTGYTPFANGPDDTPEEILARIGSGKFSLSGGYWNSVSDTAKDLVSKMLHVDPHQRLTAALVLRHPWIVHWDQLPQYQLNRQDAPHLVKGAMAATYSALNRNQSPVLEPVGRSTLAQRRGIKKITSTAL
In experiment [11] the target is Casein kinase I isoform delta (Homo sapiens) (UniProt P48730). In words: Inhibition of CK1 delta K2 labeling site in human Huh-7 cells at 10 uM by KiNativ Profiling analysis relative to control. In kind it is cell-based.
Sequence of Casein kinase I isoform delta (Homo sapiens) (P48730 whole entry, looked up, canonical isoform): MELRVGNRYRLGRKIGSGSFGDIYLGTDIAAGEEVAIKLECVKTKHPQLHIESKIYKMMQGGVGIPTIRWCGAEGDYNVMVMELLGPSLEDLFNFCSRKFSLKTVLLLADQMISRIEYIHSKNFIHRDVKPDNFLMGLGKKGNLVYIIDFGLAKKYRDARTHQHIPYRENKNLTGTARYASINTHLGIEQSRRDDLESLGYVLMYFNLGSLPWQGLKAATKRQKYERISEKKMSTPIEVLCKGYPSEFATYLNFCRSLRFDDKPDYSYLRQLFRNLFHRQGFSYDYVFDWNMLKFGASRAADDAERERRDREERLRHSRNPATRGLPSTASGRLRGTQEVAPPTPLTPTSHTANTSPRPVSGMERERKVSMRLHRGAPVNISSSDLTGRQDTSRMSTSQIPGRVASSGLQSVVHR
Experiment [12] deals with Receptor-type tyrosine-protein kinase FLT3 (Homo sapiens), P36888 [K663Q]. In words: Inhibition of FLT3 K663Q mutant (unknown origin) at 10 uM by Ambit Kinomescan binding assay relative to control.
In experiment [13] the target is Cyclin-dependent kinase 13 (Homo sapiens) (UniProt Q14004). Briefly: Inhibition of CHED K2 labeling site in human Huh-7 cells at 10 uM by KiNativ Profiling analysis relative to control. Type of experiment: cell-based.
Sequence of Cyclin-dependent kinase 13 (Homo sapiens) (Q14004 whole entry, looked up): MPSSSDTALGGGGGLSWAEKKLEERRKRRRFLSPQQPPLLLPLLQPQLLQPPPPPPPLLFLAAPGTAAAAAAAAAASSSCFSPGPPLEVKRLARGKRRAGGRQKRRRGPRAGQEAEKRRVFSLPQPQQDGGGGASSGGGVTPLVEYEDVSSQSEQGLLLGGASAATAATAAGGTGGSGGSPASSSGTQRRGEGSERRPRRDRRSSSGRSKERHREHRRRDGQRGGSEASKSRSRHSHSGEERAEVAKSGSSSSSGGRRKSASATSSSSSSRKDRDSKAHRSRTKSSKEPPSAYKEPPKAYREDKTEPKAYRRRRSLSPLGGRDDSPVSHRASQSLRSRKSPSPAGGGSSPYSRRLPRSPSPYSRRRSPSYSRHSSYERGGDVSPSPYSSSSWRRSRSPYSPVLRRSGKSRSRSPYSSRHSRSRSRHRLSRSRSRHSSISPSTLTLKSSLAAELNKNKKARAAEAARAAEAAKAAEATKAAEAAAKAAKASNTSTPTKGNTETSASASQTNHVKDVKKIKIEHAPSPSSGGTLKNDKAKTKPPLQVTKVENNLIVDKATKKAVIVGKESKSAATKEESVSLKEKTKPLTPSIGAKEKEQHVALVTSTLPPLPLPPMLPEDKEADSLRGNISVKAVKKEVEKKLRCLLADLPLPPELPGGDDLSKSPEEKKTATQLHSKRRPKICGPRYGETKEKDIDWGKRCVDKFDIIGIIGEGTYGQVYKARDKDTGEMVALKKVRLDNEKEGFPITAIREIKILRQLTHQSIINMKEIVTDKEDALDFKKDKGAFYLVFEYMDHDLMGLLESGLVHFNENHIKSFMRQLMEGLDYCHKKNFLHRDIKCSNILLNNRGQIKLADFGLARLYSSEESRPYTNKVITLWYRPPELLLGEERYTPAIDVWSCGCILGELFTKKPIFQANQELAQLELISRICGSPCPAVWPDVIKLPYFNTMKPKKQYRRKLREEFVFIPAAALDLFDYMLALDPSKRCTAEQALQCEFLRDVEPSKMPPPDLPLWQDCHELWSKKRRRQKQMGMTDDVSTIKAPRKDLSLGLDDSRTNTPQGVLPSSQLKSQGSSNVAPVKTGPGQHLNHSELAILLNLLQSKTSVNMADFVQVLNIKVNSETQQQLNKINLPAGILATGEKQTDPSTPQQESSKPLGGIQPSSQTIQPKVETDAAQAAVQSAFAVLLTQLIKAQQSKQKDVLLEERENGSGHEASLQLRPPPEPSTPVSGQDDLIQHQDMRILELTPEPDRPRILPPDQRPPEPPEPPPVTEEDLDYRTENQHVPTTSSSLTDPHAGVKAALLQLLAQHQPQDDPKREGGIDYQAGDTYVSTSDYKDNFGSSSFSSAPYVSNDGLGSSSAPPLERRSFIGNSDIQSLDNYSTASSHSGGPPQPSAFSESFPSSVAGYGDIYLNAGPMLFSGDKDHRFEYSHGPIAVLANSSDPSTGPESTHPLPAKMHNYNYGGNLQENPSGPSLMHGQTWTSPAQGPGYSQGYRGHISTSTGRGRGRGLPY

Sequence of Serine/threonine-protein kinase DCLK3 (Homo sapiens) (Q9C098 whole entry): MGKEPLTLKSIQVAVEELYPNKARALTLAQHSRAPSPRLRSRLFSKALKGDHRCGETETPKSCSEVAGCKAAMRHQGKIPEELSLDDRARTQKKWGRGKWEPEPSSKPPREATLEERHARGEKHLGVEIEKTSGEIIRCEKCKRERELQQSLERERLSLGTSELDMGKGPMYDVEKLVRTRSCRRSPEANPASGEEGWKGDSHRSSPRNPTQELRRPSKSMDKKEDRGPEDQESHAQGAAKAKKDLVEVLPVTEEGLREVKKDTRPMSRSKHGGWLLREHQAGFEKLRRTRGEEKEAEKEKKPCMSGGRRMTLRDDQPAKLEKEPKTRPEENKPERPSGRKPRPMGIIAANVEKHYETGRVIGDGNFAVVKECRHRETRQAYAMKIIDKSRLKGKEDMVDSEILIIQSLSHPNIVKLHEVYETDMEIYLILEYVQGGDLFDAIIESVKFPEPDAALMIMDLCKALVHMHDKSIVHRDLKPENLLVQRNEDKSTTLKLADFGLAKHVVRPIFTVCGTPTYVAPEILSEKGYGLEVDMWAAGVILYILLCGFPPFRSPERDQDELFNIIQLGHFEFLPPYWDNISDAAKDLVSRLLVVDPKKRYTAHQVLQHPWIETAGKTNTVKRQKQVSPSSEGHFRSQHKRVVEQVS
Sequence of Dual specificity protein kinase CLK1 (Homo sapiens) (P49759 whole entry, looked up): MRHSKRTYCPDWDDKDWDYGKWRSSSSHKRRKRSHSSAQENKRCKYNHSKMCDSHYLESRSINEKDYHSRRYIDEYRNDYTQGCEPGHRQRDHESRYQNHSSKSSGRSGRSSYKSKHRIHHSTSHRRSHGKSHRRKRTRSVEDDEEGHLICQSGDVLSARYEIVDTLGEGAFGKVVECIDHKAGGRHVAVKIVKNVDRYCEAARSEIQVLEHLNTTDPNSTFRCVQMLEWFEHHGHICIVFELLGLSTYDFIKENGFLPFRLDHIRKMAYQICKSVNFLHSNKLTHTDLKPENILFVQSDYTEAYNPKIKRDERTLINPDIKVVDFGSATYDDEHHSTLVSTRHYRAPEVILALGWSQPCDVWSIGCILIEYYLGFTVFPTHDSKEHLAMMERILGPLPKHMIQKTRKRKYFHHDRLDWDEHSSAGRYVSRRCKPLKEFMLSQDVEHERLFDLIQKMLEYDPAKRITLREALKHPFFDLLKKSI
Sequence of Serine/threonine-protein kinase 16 (Homo sapiens) (O75716 whole entry): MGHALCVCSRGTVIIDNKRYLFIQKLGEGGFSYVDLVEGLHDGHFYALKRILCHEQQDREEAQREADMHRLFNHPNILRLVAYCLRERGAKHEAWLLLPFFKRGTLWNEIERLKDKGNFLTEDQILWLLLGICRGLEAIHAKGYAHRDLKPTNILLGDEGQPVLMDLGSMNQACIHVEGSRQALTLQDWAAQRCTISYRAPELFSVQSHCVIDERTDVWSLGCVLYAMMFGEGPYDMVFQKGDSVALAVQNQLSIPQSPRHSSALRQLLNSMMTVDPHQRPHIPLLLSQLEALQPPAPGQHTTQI

As to `CNc1cc(Oc2cc(C(=O)Nc3cc(N4CCN(C)CC4)cc(C(F)(F)F)c3)ccc2C)ncn1`, the inhibition in [1] stood at 33.2%; in [2] it was 17.7%; in experiment [3] it was 88.3%.

With `CCN1CCN(Cc2ccc(NC(=O)c3ccc(C)c(/C=C/c4cnc5[nH]ccc5c4OC)c3)cc2C(F)(F)F)CC1`, the inhibition in [4] turned out to be 26.3%. Besides, the residual activity in experiment [5] was 100%.

For the molecule `CCN1CCN(Cc2ccc(NC(=O)c3ccc(C)c(Oc4ccnc5[nH]ccc45)c3)cc2C(F)(F)F)CC1`, the inhibition in experiment [6] is 16.4%; in experiment [11], 7.8%; in [12], 0%. Further, the inhibition entry in experiment [7], in experiment [9], in [10] and in experiment [13] was “inactive” each time. Further, the inhibition at 1 µM in experiment [8] was determined as 7.4%.

One may read the inhibition as the percentage by which the read-out fell short of the control. By residual activity is commonly meant the share of the control activity or signal that is left under treatment. Low values mean a large loss of activity, high ones a small loss of activity.
